Measured values taken from US12064438B2, “Pharmaceutical preparation excellent in light stability and dissolution property” (priority 2017, dated 2024).

Key:
influenza virus [1] = assay: Clinical test: randomized, placebo-controlled, double-blind study, time to alleviation of influenza symptoms (10, 20, 40 mg); assay type: in vivo, human
influenza virus [2] = assay type: in vivo, human; conditions: 20 to younger than 65 years old, Compound II-6 single 40 or 80 mg, Oseltamivir 75 mg twice a day for 5 days
[3] = for Adverse events the causal relationship of which cannot be denied, number of episodes: Compound II-6 610 patients, Oseltamivir 513 patients; for Adverse events the causal relationship of which cannot be denied, proportion of patients: Compound II-6 single 40 or 80 mg, Oseltamivir 75 mg twice a day for 5 days
Excerpt: The number of side-effect episodes and the number of patients with side effect were counted for each administration group.

[4] = single oral 20 mg, Cox proportional hazard model relative to placebo
[5] = single oral 40 mg, baseline symptom moderate or severe

## COC(=O)OCOc1c2n(ccc1=O)N([C@@H]1c3ccccc3SCc3c1ccc(F)c3F)[C@@H]1COCCN1C2=O [Compound II-6]
Influenza virus [1]; single oral 10 mg, Cox proportional hazard model relative to placebo
  Time until muscular or joint pain symptom is alleviated, Hazard ratio: 0.77
Influenza virus [1]; [4]
  Time to alleviation of influenza symptoms, Hazard ratio: 0.81
  Time until nasal congestion symptom is alleviated, Hazard ratio: 0.59
Influenza virus [1]; single oral 40 mg
  median time until muscular or joint pain was improved, shorter in the 40 mg administered group than the placebo group: 16.4 h
  median time until nasal congestion was improved, shorter in the 40 mg administered group than the placebo group: 21.0 h
Influenza virus [1]; single oral 40 mg, Cox proportional hazard model relative to placebo
  Time until feverishness or chills symptom is alleviated, Hazard ratio: 0.71
Influenza virus [1]; [5]
  Time until muscular or joint pain symptom is alleviated, Difference from placebo: -16.4 h
  Time until nasal congestion symptom is alleviated, Difference from placebo: -21 h
Influenza virus [2]
  time to termination of viral shedding based on virus titer: 24.0 h
Influenza virus [2]; Day 5
  Amount of change in virus titer from baseline, Mean: −4.95 log10 [TCID50/mL]
[3]
  Adverse events the causal relationship of which cannot be denied, number of episodes: 37 episodes
  Adverse events the causal relationship of which cannot be denied, proportion of patients: 4.4%
[3]; human, in vivo
  Severe adverse events the causal relationship of which cannot be denied: not reported

## CCOC(=O)C1=C[C@@H](OC(CC)CC)[C@H](NC(C)=O)[C@@H](N)C1 [Oseltamivir, reference compound]
Influenza virus [2]
  time to termination of viral shedding based on virus titer: 72.0 h
[3]
  Adverse events the causal relationship of which cannot be denied, number of episodes: 53 episodes
  Adverse events the causal relationship of which cannot be denied, proportion of patients: 8.4%
